“And” between values parts separate entries of the source, which are not always exact repeats. Equal values may be shown once. Inconclusive results and toxic doses are left out.
System: L1210 leukemia ip in BDF1 mice, survival T/C
Assay: NCI In Vivo Anticancer Drug Screen. Data for tumor model L1210 Leukemia (intraperitoneal) in B6D2F1 (BDF1) mice
Conditions: endpoint: mean survival time, higher = longer survival
How it was run: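 Survival endpoint. Drug-treated group vs vehicle group, expressed as T divided by C. Tumor passaged by transplantation.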

[1] = dose: 10.0 mg/kg/injection, schedule: Q01DX Z (ip), vehicle: saline
[2] = dose: 50.0 mg/kg/injection, schedule: Q01DX009 (ip), vehicle: Klucel (hydroxypropylcellulose) (HPC)
[3] = dose: 100.0 mg/kg/injection, schedule: Q01DX009 (ip), vehicle: Klucel (hydroxypropylcellulose) (HPC)
[4] = dose: 100.0 mg/kg/injection, schedule: Q04DX003 (ip), vehicle: saline
[5] = dose: 200.0 mg/kg/injection, schedule: Q01DX009 (ip), vehicle: Klucel (hydroxypropylcellulose) (HPC)
[6] = dose: 200.0 mg/kg/injection, schedule: Q04DX003 (ip), vehicle: saline
[7] = dose: 100.0 mg/kg/injection, schedule: Q01DX001 (ip), vehicle: carboxymethylcellulose (CMC)
[8] = dose: 200.0 mg/kg/injection, schedule: Q01DX001 (ip), vehicle: carboxymethylcellulose (CMC)
[9] = dose: 400.0 mg/kg/injection, schedule: Q01DX001 (ip), vehicle: carboxymethylcellulose (CMC)
[10] = dose: 25.0 mg/kg/injection, schedule: Q01DX009 (ip), vehicle: Klucel (hydroxypropylcellulose) (HPC)
[11] = dose: 25.0 mg/kg/injection, schedule: Q01DX009 (ip), vehicle: saline with Tween-80
[12] = dose: 50.0 mg/kg/injection, schedule: Q01DX009 (ip), vehicle: saline with Tween-80
[13] = dose: 100.0 mg/kg/injection, schedule: Q04DX003 (ip), vehicle: saline with Tween-80

For `CCOC(=O)Nc1ccc(SC)cc1`, the T/C (dose: 100.0 mg/kg/injection, schedule: Q01DX009 (ip), vehicle: saline) was 94 % of control, the T/C (dose: 200.0 mg/kg/injection, schedule: Q01DX009 (ip), vehicle: saline) was 100 % of control and the T/C (dose: 400.0 mg/kg/injection, schedule: Q01DX009 (ip), vehicle: saline) was 103 % of control.
For `O=C(NCCCCC(NC(=O)OCc1ccccc1)C(=O)NCCCNCCCCNCCCNC(=O)C(CCCCNC(=O)OCc1ccccc1)NC(=O)OCc1ccccc1)OCc1ccccc1` (stereo not given), the T/C (dose: 2.5 mg/kg/injection, schedule: Q01DX Z (ip), vehicle: saline) was 93 % of control, the T/C (dose: 5.0 mg/kg/injection, schedule: Q01DX Z (ip), vehicle: saline) was 96 % of control and the T/C [1] was 98 % of control. The T/C (dose: 20.0 mg/kg/injection, schedule: Q01DX Z (ip), vehicle: saline) was 96 % of control.
`Cc1ccc(P(=O)(O)O)cc1C` was tested, and the T/C (dose: 37.5 mg/kg/injection, schedule: Q01DX009 (ip), vehicle: saline) was 101 % of control, the T/C [2] was 101 % of control and the T/C (dose: 75.0 mg/kg/injection, schedule: Q01DX009 (ip), vehicle: saline) was 89 % of control. The T/C [3] was 95 % of control, the T/C [4] was 100 % of control and the T/C (dose: 150.0 mg/kg/injection, schedule: Q01DX009 (ip), vehicle: saline) was 87 % of control. For the same compound, the T/C [5] was 101 % of control and the T/C [6] was 88 % of control.
In the case of `CP1(=O)CCC(=O)C1` (stereo not given), the T/C [4] is reported as 98 % of control, the T/C [6] is reported as 110 % of control and the T/C (dose: 400.0 mg/kg/injection, schedule: Q04DX003 (ip), vehicle: saline) is reported as 104 % of control.
With `CCC(Cl)COP(=O)(CC(Cl)CC)O/C(C)=C(\C)OP(=O)(OCC(Cl)CC)OCC(Cl)CC` (stereo not given) the T/C (dose: 25.0 mg/kg/injection, schedule: Q04DX002 (sc), vehicle: olive oil, sesame oil, peanut oil) was 104 % of control, the T/C (dose: 50.0 mg/kg/injection, schedule: Q04DX002 (sc), vehicle: olive oil, sesame oil, peanut oil) was 93 % of control and the T/C (dose: 100.0 mg/kg/injection, schedule: Q04DX002 (sc), vehicle: olive oil, sesame oil, peanut oil) was 107 % of control.
With `CCCCCCCCCC(C)Cc1ccccc1` (stereo not given) the T/C (dose: 100.0 mg/kg/injection, schedule: Q01DX001 (ip), vehicle: saline with Tween-80) was 100 % of control, the T/C (dose: 200.0 mg/kg/injection, schedule: Q01DX001 (ip), vehicle: saline with Tween-80) was 100 % of control and the T/C (dose: 400.0 mg/kg/injection, schedule: Q01DX001 (ip), vehicle: saline with Tween-80) was 92 % of control.
`C/C(=C/c1ccccc1)C(=O)NN` was tested, and the T/C (dose: 80.0 mg/kg/injection, schedule: Q01DX001 (ip), vehicle: saline with Tween-80) was 98 % of control and the T/C (dose: 160.0 mg/kg/injection, schedule: Q01DX001 (ip), vehicle: saline with Tween-80) was 106 % of control.
With `CC12CCC(CC1Cl)C2` (stereo not given) the T/C (dose: 50.0 mg/kg/injection, schedule: Q01DX001 (ip), vehicle: carboxymethylcellulose (CMC)) was 93 % of control, the T/C [7] was 91 % of control and the T/C [8] was 91 % of control. The T/C [9] was 96 % of control.
With `NC(N)=NC(N)=Nc1cccc(Cl)c1` the T/C [10] was 108 % of control and 88 % of control, the T/C [2] was 94 % of control and 97 % of control and the T/C (dose: 100.0 mg/kg/injection, schedule: Q01DX001 (ip), vehicle: Klucel (hydroxypropylcellulose) (HPC)) was 93 % of control. For the same compound, the T/C (dose: 100.0 mg/kg/injection, schedule: Q04DX003 (ip), vehicle: Klucel (hydroxypropylcellulose) (HPC)) was 105 % of control and the T/C (dose: 200.0 mg/kg/injection, schedule: Q01DX001 (ip), vehicle: Klucel (hydroxypropylcellulose) (HPC)) was 103 % of control.
`CCC1CN1CC1CO1` (stereo not given) was tested, and the T/C (dose: 4.0 mg/kg/injection, schedule: Q01DX Z (ip), vehicle: saline) was 101 % of control, the T/C (dose: 7.0 mg/kg/injection, schedule: Q01DX Z (ip), vehicle: saline) was 106 % of control and the T/C [1] was 95 % of control. For the same compound, the T/C (dose: 33.0 mg/kg/injection, schedule: Q01DX Z (ip), vehicle: saline) was 158 % of control and 196 % of control, the T/C (dose: 50.0 mg/kg/injection, schedule: Q01DX Z (ip), vehicle: saline) was 123 % of control and 183 % of control and 218 % of control and the T/C (dose: 75.0 mg/kg/injection, schedule: Q01DX Z (ip), vehicle: saline) was 120 % of control.
With `CC12C(=O)OC(=O)C1(C)C1OC2C(Br)C1Br` (stereo not given) the T/C [11] was 95 % of control, the T/C [12] was 97 % of control and the T/C (dose: 100.0 mg/kg/injection, schedule: Q01DX009 (ip), vehicle: saline with Tween-80) was 88 % of control.
For `CCC(CCC(C)C1CCC2C3CC=C4CC(O)CCC4(C)C3CCC12C)C(C)C` (stereo not given) (tested in a mixture with another compound), the T/C (dose: 12.5 mg/kg/injection, schedule: Q#A X030 (ip), vehicle: water) was 103 % of control, the T/C [11] was 93 % of control and the T/C (dose: 25.0 mg/kg/injection, schedule: Q#A X030 (ip), vehicle: water) was 101 % of control. The T/C [12] was 89 % of control, the T/C (dose: 50.0 mg/kg/injection, schedule: Q#A X030 (ip), vehicle: water) was 92 % of control and the T/C [13] was 100 % of control. For the same compound, the T/C (dose: 200.0 mg/kg/injection, schedule: Q01DX001 (ip), vehicle: water) was 101 % of control and the T/C (dose: 400.0 mg/kg/injection, schedule: Q01DX001 (ip), vehicle: water) was 95 % of control.
For `CC(=O)OCc1c(COC(C)=O)c(-c2ccc(Cl)cc2)n2c1CCC2`, the T/C (dose: 12.5 mg/kg/injection, schedule: Q01DX009 (ip), vehicle: Klucel (hydroxypropylcellulose) (HPC)) was 95 % of control, the T/C [10] was 102 % of control and the T/C [2] was 117 % of control.
With `O=C1C=C(O)c2cc(Br)ccc2C1=O.[Ag]` the T/C (dose: 100.0 mg/kg/injection, schedule: Q04DX002 (ip), vehicle: saline) was 105 % of control.
In the case of `O=C(Nc1cc(S(=O)(=O)F)ccc1Cl)Oc1ccc([N+](=O)[O-])cc1`, the T/C [13] is reported as 102 % of control, the T/C (dose: 200.0 mg/kg/injection, schedule: Q04DX003 (ip), vehicle: saline with Tween-80) is reported as 97 % of control and the T/C (dose: 400.0 mg/kg/injection, schedule: Q04DX003 (ip), vehicle: saline with Tween-80) is reported as 100 % of control.
`Cc1ccc(C)c(N2CCN(c3ccncc3N)CC2)c1` was tested, and the T/C (dose: 75.0 mg/kg/injection, schedule: Q01DX001 (ip), vehicle: saline with Tween-80) was 98 % of control, the T/C (dose: 75.0 mg/kg/injection, schedule: Q01DX009 (ip), vehicle: saline with Tween-80) was 95 % of control and the T/C (dose: 150.0 mg/kg/injection, schedule: Q01DX001 (ip), vehicle: saline with Tween-80) was 93 % of control. For the same compound, the T/C (dose: 150.0 mg/kg/injection, schedule: Q01DX009 (ip), vehicle: saline with Tween-80) was 102 % of control and the T/C (dose: 300.0 mg/kg/injection, schedule: Q01DX001 (ip), vehicle: saline with Tween-80) was 101 % of control.
For `CC(C)c1nc(CO)c(CO)n1Cc1ccccc1`, the T/C [7] was 106 % of control, the T/C (dose: 100.0 mg/kg/injection, schedule: Q01DX009 (ip), vehicle: carboxymethylcellulose (CMC)) was 93 % of control and 109 % of control and the T/C (dose: 100.0 mg/kg/injection, schedule: Q04DX002 (ip), vehicle: Klucel (hydroxypropylcellulose) (HPC)) was 112 % of control. The T/C (dose: 100.0 mg/kg/injection, schedule: Q04DX002 (ip), vehicle: carboxymethylcellulose (CMC)) was 93 % of control and 111 % of control, the T/C [8] was 108 % of control and the T/C (dose: 200.0 mg/kg/injection, schedule: Q01DX009 (ip), vehicle: carboxymethylcellulose (CMC)) was 106 % of control and 91 % of control. For the same compound, the T/C (dose: 200.0 mg/kg/injection, schedule: Q04DX002 (ip), vehicle: Klucel (hydroxypropylcellulose) (HPC)) was 102 % of control, the T/C (dose: 200.0 mg/kg/injection, schedule: Q04DX002 (ip), vehicle: carboxymethylcellulose (CMC)) was 105 % of control and 88 % of control and the T/C [9] was 108 % of control. The T/C (dose: 400.0 mg/kg/injection, schedule: Q01DX009 (ip), vehicle: carboxymethylcellulose (CMC)) was 106 % of control and 91 % of control, the T/C (dose: 400.0 mg/kg/injection, schedule: Q04DX002 (ip), vehicle: Klucel (hydroxypropylcellulose) (HPC)) was 102 % of control and the T/C (dose: 400.0 mg/kg/injection, schedule: Q04DX002 (ip), vehicle: carboxymethylcellulose (CMC)) was 97 % of control and 90 % of control.
For `O=C1C2CC(CN3CCCCC23)C2CCCCN12` (stereo not given), the T/C (dose: 75.0 mg/kg/injection, schedule: Q01DX001 (ip), vehicle: saline) was 94 % of control, the T/C (dose: 150.0 mg/kg/injection, schedule: Q01DX001 (ip), vehicle: saline) was 103 % of control and the T/C (dose: 300.0 mg/kg/injection, schedule: Q01DX001 (ip), vehicle: saline) was 101 % of control.
`CC(=O)N(C)c1ccc(NC(=O)C2CCCCC2C(=O)O)cc1` (stereo not given) was tested, and the T/C [3] was 98 % of control, the T/C [5] was 95 % of control and the T/C (dose: 400.0 mg/kg/injection, schedule: Q01DX009 (ip), vehicle: Klucel (hydroxypropylcellulose) (HPC)) was 93 % of control.
For `FC(F)(F)c1cccc(-c2nc3nc(Cl)c(Cl)nc3[nH]2)c1`, the T/C (dose: 12.5 mg/kg/injection, schedule: Q01DX009 (ip), vehicle: saline with Tween-80) was 93 % of control, the T/C [11] was 98 % of control and the T/C [12] was 90 % of control.
